Results published in patent US11331299B2, “Medicinal use of serrulatane diterpenes” (The University of Sydney, priority 2016, dated 2022).
Like-named read-outs stand apart in the source and are kept apart here.

Test system: 280 human cancer cell lines
Assay: OncoPanel cell proliferation assay (10-day)
Format: cell-based
Conditions: Homo sapiens; for EC50: read-out: Cell Count EC50; for GI50: read-out: Cell Count GI50; for IC50: read-out: Cell Count IC50
[1] = NCI-H292, NCI-H292, Lung - NSCLC
[2] = NCI-H295R, Endocrine - Adrenal gland
[3] = NCI-H441, NCIH441, Lung - NSCLC
[4] = NCI-H460, NCI-H460, Lung - NSCLC
[5] = NCI-H520, NCI-H520, Lung - NSCLC
[6] = NCI-H596, NCI-H596, Lung - NSCLC
[7] = NCI-H661, NCI-H661, Lung - NSCLC
[8] = NTERA-2-cl-D1, NTERA-2 cl.D1, Testis
[9] = OVCAR-3, OVCAR3, Female GU - Ovary
[10] = RPMI-7951, RPMI-7951, Skin (Melanoma)
[11] = SAOS-2, SaOS2, Soft Tissue - Osteosarcoma

Compound: CC(C)=CCC[C@@H]1C(O)Oc2c(C)cc(O)c3c2[C@H]1CC[C@H]3C (some centres unmarked) [Compound 2, 5,18-epoxyserrulat-14-en-8,18-diol]
- EC50 [1]: 16.7 µM
- GI50 [1]: 16.6 µM
- IC50 [1]: 16.7 µM
- EC50 [2]: > 30 µM
- GI50 [2]: > 30 µM
- IC50 [2]: > 30 µM
- EC50 [3]: > 30 µM
- GI50 [3]: > 30 µM
- IC50 [3]: > 30 µM
- EC50 (NCI-H446, NCIH446, Lung - SCLC): 9.75 µM
- GI50 (NCI-H446, NCIH446, Lung - SCLC): 9.77 µM
- IC50 (NCI-H446, NCIH446, Lung - SCLC): 9.85 µM
- EC50 [4]: 5.57 µM
- GI50 [4]: 5.91 µM
- IC50 [4]: 5.92 µM
- EC50 (NCI-H508, NCI-H508, Colon): > 30 µM
- GI50 (NCI-H508, NCI-H508, Colon): > 30 µM
- IC50 (NCI-H508, NCI-H508, Colon): > 30 µM
- EC50 [5]: 9.03 µM
- GI50 [5]: 9.17 µM
- IC50 [5]: 9.2 µM
- EC50 [6]: 12 µM
- GI50 [6]: 14.4 µM
- IC50 [6]: 15.1 µM
- EC50 [7]: 9.51 µM
- GI50 [7]: 9.51 µM
- IC50 [7]: 9.51 µM
- EC50 (NCI-H747, NCI-H747, Colon): 12.3 µM
- GI50 (NCI-H747, NCI-H747, Colon): > 30 µM
- IC50 (NCI-H747, NCI-H747, Colon): > 30 µM
- EC50 [8]: 12.5 µM
- GI50 [8]: 12.3 µM
- IC50 [8]: 12.5 µM
- EC50 (OCUG-1, OCUG-1, Liver): > 30 µM
- GI50 (OCUG-1, OCUG-1, Liver): 29.9 µM
- IC50 (OCUG-1, OCUG-1, Liver): > 30 µM
- EC50 (OE19, OE19, Head and Neck): > 30 µM
- GI50 (OE19, OE19, Head and Neck): > 30 µM
- IC50 (OE19, OE19, Head and Neck): > 30 µM
- EC50 (OE21, OE21, Head and Neck): > 30 µM
- GI50 (OE21, OE21, Head and Neck): > 30 µM
- IC50 (OE21, OE21, Head and Neck): > 30 µM
- EC50 [9]: 14.4 µM
- GI50 [9]: 13.7 µM
- IC50 [9]: 14.4 µM
- EC50 (PA-1, Female GU - Ovary): 11.6 µM
- GI50 (PA-1, Female GU - Ovary): 16.2 µM
- IC50 (PA-1, Female GU - Ovary): 16.3 µM
- EC50 (PANC-1, PANC-1, Pancreas): 7.06 µM
- GI50 (PANC-1, PANC-1, Pancreas): 7.01 µM
- IC50 (PANC-1, PANC-1, Pancreas): 7.06 µM
- EC50 (PC-3, Prostate): 12 µM
- GI50 (PC-3, Prostate): 11.8 µM
- IC50 (PC-3, Prostate): 12 µM
- EC50 (PFSK-1, PFSK-1, CNS - Glioma): 14.7 µM
- GI50 (PFSK-1, PFSK-1, CNS - Glioma): 14.6 µM
- IC50 (PFSK-1, PFSK-1, CNS - Glioma): 14.7 µM
- EC50 (PSN1, PSN-1, Pancreas): 12 µM
- GI50 (PSN1, PSN-1, Pancreas): 12 µM
- IC50 (PSN1, PSN-1, Pancreas): 12 µM
- EC50 (RD, Soft Tissue - Sarcoma): 2.98 µM
- GI50 (RD, Soft Tissue - Sarcoma): 2.96 µM
- IC50 (RD, Soft Tissue - Sarcoma): 2.98 µM
- EC50 (RKO, Colon): 7.22 µM
- GI50 (RKO, Colon): 7.92 µM
- IC50 (RKO, Colon): 7.92 µM
- EC50 (RKOE6, RKOE6, Colon): 6.95 µM
- GI50 (RKOE6, RKOE6, Colon): 6.93 µM
- IC50 (RKOE6, RKOE6, Colon): 6.95 µM
- EC50 (RPMI-6666, RPMI 6666, Lymphoma): 10.4 µM
- GI50 (RPMI-6666, RPMI 6666, Lymphoma): 10.7 µM
- IC50 (RPMI-6666, RPMI 6666, Lymphoma): 10.7 µM
- EC50 [10]: 5.77 µM
- GI50 [10]: 6.13 µM
- IC50 [10]: 6.15 µM
- EC50 (RPMI-8226, RPMI 8226, Myeloma): 2.02 µM
- GI50 (RPMI-8226, RPMI 8226, Myeloma): 1.95 µM
- IC50 (RPMI-8226, RPMI 8226, Myeloma): 2.02 µM
- EC50 (RS4-11, RS4, 11, Leukemia): 6.43 µM
- GI50 (RS4-11, RS4, 11, Leukemia): 6.3 µM
- IC50 (RS4-11, RS4, 11, Leukemia): 6.43 µM
- EC50 (Raji, Lymphoma): 8.04 µM
- GI50 (Raji, Lymphoma): 8.04 µM
- IC50 (Raji, Lymphoma): 8.04 µM
- EC50 (Ramos, Ramos (RA 1), Lymphoma): 4.39 µM
- GI50 (Ramos, Ramos (RA 1), Lymphoma): 4.39 µM
- IC50 (Ramos, Ramos (RA 1), Lymphoma): 4.39 µM
- EC50 [11]: 15.7 µM
- GI50 [11]: 15.1 µM
- IC50 [11]: 15.7 µM
- EC50 (SCC-4, SCC-4, Head and Neck): > 30 µM
- GI50 (SCC-4, SCC-4, Head and Neck): > 30 µM
- IC50 (SCC-4, SCC-4, Head and Neck): > 30 µM
- EC50 (SCC-9, SCC-9, Head and Neck): 26.7 µM
- GI50 (SCC-9, SCC-9, Head and Neck): 27.3 µM
- IC50 (SCC-9, SCC-9, Head and Neck): 27.3 µM
- EC50 (SCC-25, SCC-25, Head and Neck): > 30 µM
- GI50 (SCC-25, SCC-25, Head and Neck): > 30 µM
- IC50 (SCC-25, SCC-25, Head and Neck): > 30 µM
- EC50 (SCaBER, Bladder): 11.5 µM
- GI50 (SCaBER, Bladder): 11.4 µM
